In the supplement of paper PMC10307832:

How the values were obtained:
Assay in all cases: relative viability (nuclei count vs DMSO), 5 days (fraction); higher = more cells survive
COR-L23 = test system: COR-L23
In short: (§1)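 Five library-drug doses in √10 steps were combined with a fixed anchor-drug dose, or a single drug was given alone, by pin tool to lung cancer cell lines in 1536-well plates the day after seeding. Nuclei were stained and counted after 5 days. Relative viability is the nuclei count in treated wells over that in vehicle wells, taken as the median of duplicate plates.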

NCI-H1793 = test system: NCI-H1793
In short: as §1

EMC-BAC-2 = test system: EMC-BAC-2
In short: as §1

NCI-H23 = test system: NCI-H23
In short: as §1

NCI-H358 = test system: NCI-H358
In short: as §1

NCI-H1437 = test system: NCI-H1437
In short: as §1

NCI-H2342 = test system: NCI-H2342
In short: as §1

NCI-H1915 = test system: NCI-H1915
In short: as §1

SK-MES-1 = test system: SK-MES-1
In short: as §1

NCI-H2023 = test system: NCI-H2023
In short: as §1

NCI-H2009 = test system: NCI-H2009
In short: as §1

## Cc1cn(-c2cc(NC(=O)c3ccc(C)c(Nc4nccc(-c5cccnc5)n4)c3)cc(C(F)(F)F)c2)cn1 [Nilotinib] + CC(=O)c1c(C)c2cnc(Nc3ccc(N4CCNCC4)cn3)nc2n(C2CCCC2)c1=O [Palbociclib] (partner 0.5 µM)
COR-L23; first compound 0.001 µM
  relative viability: 0.288
COR-L23; first compound 0.003162 µM
  relative viability: 0.301
COR-L23; first compound 0.01 µM
  relative viability: 0.317
COR-L23; first compound 0.03162 µM
  relative viability: 0.268
COR-L23; first compound 0.1 µM
  relative viability: 0.223
NCI-H1793; first compound 0.001 µM
  relative viability: 0.332
NCI-H1793; first compound 0.003162 µM
  relative viability: 0.352
NCI-H1793; first compound 0.01 µM
  relative viability: 0.307
NCI-H1793; first compound 0.03162 µM
  relative viability: 0.281
NCI-H1793; first compound 0.1 µM
  relative viability: 0.3
EMC-BAC-2; first compound 0.001 µM
  relative viability: 0.477
EMC-BAC-2; first compound 0.003162 µM
  relative viability: 0.47
EMC-BAC-2; first compound 0.01 µM
  relative viability: 0.481
EMC-BAC-2; first compound 0.03162 µM
  relative viability: 0.487
EMC-BAC-2; first compound 0.1 µM
  relative viability: 0.526
NCI-H23; first compound 0.001 µM
  relative viability: 0.494
NCI-H23; first compound 0.003162 µM
  relative viability: 0.52
NCI-H23; first compound 0.01 µM
  relative viability: 0.512
NCI-H23; first compound 0.03162 µM
  relative viability: 0.443
NCI-H23; first compound 0.1 µM
  relative viability: 0.404
NCI-H358; first compound 0.001 µM
  relative viability: 0.131
NCI-H358; first compound 0.003162 µM
  relative viability: 0.131
NCI-H358; first compound 0.01 µM
  relative viability: 0.148
NCI-H358; first compound 0.03162 µM
  relative viability: 0.124
NCI-H358; first compound 0.1 µM
  relative viability: 0.127
NCI-H1437; first compound 0.001 µM
  relative viability: 0.28
NCI-H1437; first compound 0.003162 µM
  relative viability: 0.304
NCI-H1437; first compound 0.01 µM
  relative viability: 0.308
NCI-H1437; first compound 0.03162 µM
  relative viability: 0.276
NCI-H1437; first compound 0.1 µM
  relative viability: 0.32
NCI-H2342; first compound 0.001 µM
  relative viability: 0.508
NCI-H2342; first compound 0.003162 µM
  relative viability: 0.559
NCI-H2342; first compound 0.01 µM
  relative viability: 0.49
NCI-H2342; first compound 0.03162 µM
  relative viability: 0.489
NCI-H2342; first compound 0.1 µM
  relative viability: 0.478
NCI-H1915; first compound 0.001 µM
  relative viability: 0.492
NCI-H1915; first compound 0.003162 µM
  relative viability: 0.535
NCI-H1915; first compound 0.01 µM
  relative viability: 0.53
NCI-H1915; first compound 0.03162 µM
  relative viability: 0.502
NCI-H1915; first compound 0.1 µM
  relative viability: 0.475
SK-MES-1; first compound 0.001 µM
  relative viability: 0.347
SK-MES-1; first compound 0.003162 µM
  relative viability: 0.298
SK-MES-1; first compound 0.01 µM
  relative viability: 0.313
SK-MES-1; first compound 0.03162 µM
  relative viability: 0.377
SK-MES-1; first compound 0.1 µM
  relative viability: 0.32
NCI-H2023; first compound 0.001 µM
  relative viability: 0.395
NCI-H2023; first compound 0.003162 µM
  relative viability: 0.401
NCI-H2023; first compound 0.01 µM
  relative viability: 0.457
NCI-H2023; first compound 0.03162 µM
  relative viability: 0.333
NCI-H2023; first compound 0.1 µM
  relative viability: 0.419
NCI-H2009; first compound 0.001 µM
  relative viability: 0.21
NCI-H2009; first compound 0.003162 µM
  relative viability: 0.191
NCI-H2009; first compound 0.01 µM
  relative viability: 0.193
